Test results reported in PMC13087548, “The Use of DeepQSAR Models for the Discovery of Peptides With Enhanced Antimicrobial and Antibiofilm Potential” (Molecular Informatics, 2026).
Like-named read-outs stand apart in the source and are kept apart here. Ends that are not written are not given here. Peptide text beside a SMILES is read from it.

How the values were obtained:
[1] = test system: methicillin‐resistant Staphylococcus aureus (MRSA); settings: read-out: IC50 antimicrobial (planktonic); MRSA in 10% tryptic soy broth + 0.1% glucose, overnight 37°C, growth by OD600; peptide array samples; nplr fit
Protocol: (§1) Peptide arrays on cellulose membranes were made by Kinexus Bioinformatics Corporation (Vancouver, BC, Canada) and were obtained as cleaved free peptide associated with the punched‐out spot of the cellulose membrane. Stock solutions of the peptide array samples were prepared by dissolving the free peptide in 200 µL of endotoxin‐free sterile water, incubating at room temperature for ~ 1 h, and then transferring the resulting peptide solution to a sterile microfuge tube for subsequent antimicrobial activity assays. The concentration of the stock peptide array samples was determined by measuring the absorbance at 280 nm of the solution (in duplicate) on a BioTek Epoch Microplate Spectrophotometer using the Take3TM Multi‐Volume Plate. A theoretical extinction coefficient of each peptide was determined based on the number of Trp and Try residues1 in the peptide sequence according to the formula: (#Trp) × 5500 M^− ^1 cm^− ^1 + (#Tyr) × 1490 M^− ^1 cm^− ^1, and the concentration of the peptide in solution was calculated according to the Beer–Lambert law. Any Cys residues within the peptide samples were assumed not to be present in a disulfide bond, so their contribution to the extinction coefficient at 280 nm was ignored.
(§2) Peptides were synthesized on peptide arrays and tested as described previously. Briefly, the antimicrobial activity and biofilm inhibition activity of the peptide array samples were assessed against methicillin‐resistant Staphylococcus aureus (MRSA). Briefly, twofold serial dilutions of the peptide array sample (10 μL final volume) were prepared in 96‐well plates and then 90 μL of a 1:100 dilution of an overnight culture of MRSA diluted in 10% tryptic soy broth supplemented with 0.1% glucose was added to each well and the plates were incubated overnight at 37°C. The following day, bacterial growth was quantified by measuring the optical density at 600 nm (OD600) of each sample well while the amount of biofilm was quantified by rinsing the wells of the plate with distilled water and staining the adhered biomass with 0.1% crystal violet solution. The amount of adhered biomass was quantified by recording the absorbance at 595 nm (A595). Dose–response curves were drawn for each peptide based on the bacterial growth (OD600) or biofilm inhibition (A595) and normalizing the percent of peptide inhibition relative to untreated bacteria (100% growth) or sterile media (0% growth). The concentration of peptide required to inhibit 50% of bacterial or biofilm growth (IC50) was calculated by nonlinear regression fit of the dose–response curves using the N‐Parameter Logistic Regression (nplr) package.

[2] = test system: methicillin‐resistant Staphylococcus aureus (MRSA) biofilm; settings: read-out: IC50 Biofilm; MRSA in 10% tryptic soy broth + 0.1% glucose, overnight 37°C, adhered biomass stained with 0.1% crystal violet, A595; peptide array samples; nplr fit
Protocol: as §1, §2

[3] = test system: human red blood cells; experiment: Hemolysis assay; type: cell-based
From the text: (§3) To evaluate the safety profiles of predicted peptides, we conducted hemolysis and PBMC cytotoxicity assays on three representative candidates (J20: LKIKVHIYRMKR, J28: FRVCYRGICYRR, J39: […]). These peptides were randomly selected from the top 22 peptides predicted by our classification model to outperform the reference peptide IDR‐1018 in antibiofilm activity. All three peptides were synthesized at > 95% purity and tested in standard in vitro assays.

[4] = test system: human PBMCs; experiment: PBMC cytotoxicity assay; type: cell-based
From the text: as §3

[5] = test system: biofilm; experiment: Minimum biofilm inhibitory concentration (MBIC); type: cell-based; settings: peptides > 95% purity; Table S1

Compound	IC50 [1] [nM]	IC50 [2] [nM]	further results
RLHGFLIRMRTR-NH2 [compound 44]	1190		
RGFVRLKKWFNI-NH2 [compound 39]		230	Hemolysis IC50 ([3]; human erythrocytes, concentration range 1–256 μg/mL, peptides > 95% purity): > 250 µg/mL; PBMC IC50 (cytotoxicity) ([4]; human PBMCs, peptides > 95% purity): > 250 µg/mL; Biofilm-inhibitory concentration (MBIC) [5]: 1 to 4 µg/mL
KLVRRKGRLYVI-NH2 [compound 50]		400	
RRRAKGRIRLIV-NH2 [compound 62]	890		
RALKKIIKRLCR-NH2 [compound 86]	710	380	
GLKSFARVLKKI-NH2 [compound 33]	1150		
CC[C@H](C)[C@H](NC(=O)CNC(=O)[C@H](CCCNC(=N)N)NC(=O)[C@H](Cc1ccc(O)cc1)NC(=O)[C@H](CS)NC(=O)[C@@H](NC(=O)[C@H](CCCNC(=N)N)NC(=O)[C@@H](N)Cc1ccccc1)C(C)C)C(=O)N[C@@H](CS)C(=O)N[C@@H](Cc1ccc(O)cc1)C(=O)N[C@@H](CCCNC(=N)N)C(=O)N[C@@H](CCCNC(=N)N)C(N)=O [compound 28] (H-FRVCYRGICYRR-NH2; N-terminus assumed)			Hemolysis IC50 ([3]; red cells of human): > 250 µg/mL; PBMC IC50 (cytotoxicity) [4]: > 250 µg/mL
LFKFLGKKVLKT-NH2 [compound 9]		470	
WKKKGRMRWKWI-NH2 [compound 10]		270	
VRLIVAVRIWRR-NH2 [IDR‐1018, reference compound]	1730	1420	
LKIKVHIYRMKR-NH2 [compound 20]		350	Hemolysis IC50 ([3]; red cells of human): > 250 µg/mL; PBMC IC50 (cytotoxicity) [4]: 166.1 µg/mL; Biofilm-inhibitory concentration (MBIC) [5]: 1 to 4 µg/mL
RVVRRKGRIYIL-NH2 [compound 81]		440	
RARGRKRLVVTI-NH2 [compound 40]		300	
